# Measured values taken from ChEMBL document CHEMBL3879914, “Inhibitors of central nervous system vasoactive inhibitory peptide receptor 2” (2014).
# Active and inactive are the calls of the source. The calls are words filed in the database; no cut-off is given here.
# How the values were obtained:
# [1] = target: T1, Vasoactive intestinal polypeptide receptor 2 (Homo sapiens) (UniProt P41587); experiment: (§1) Antagonist activity at recombinant human N-terminal signal peptide/FLAG epitope-tagged Rluc8-fused VIPR2 expressed in HEK293 cells assessed as inhibition of VIP-induced human mVenus-beta-arrestin2 binding at 0.5 uM preincubated for 5 mins with luciferin, coelenterazine H followed by VIP addition measured after 5 mins by BRET assay relative to control; assay type: cell-based
# T1 sequence (whole entry): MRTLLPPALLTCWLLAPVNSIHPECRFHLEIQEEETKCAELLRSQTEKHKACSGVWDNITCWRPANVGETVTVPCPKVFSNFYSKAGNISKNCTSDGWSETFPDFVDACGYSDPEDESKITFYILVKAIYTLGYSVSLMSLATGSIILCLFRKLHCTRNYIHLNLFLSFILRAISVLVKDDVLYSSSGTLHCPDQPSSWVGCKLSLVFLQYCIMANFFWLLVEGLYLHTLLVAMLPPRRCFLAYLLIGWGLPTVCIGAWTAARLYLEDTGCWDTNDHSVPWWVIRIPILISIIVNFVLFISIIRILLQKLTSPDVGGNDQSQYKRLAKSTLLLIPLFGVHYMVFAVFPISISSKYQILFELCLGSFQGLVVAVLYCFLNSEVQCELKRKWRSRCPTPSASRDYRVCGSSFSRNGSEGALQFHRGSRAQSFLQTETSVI
# [2] = target: T2, Vasoactive intestinal polypeptide receptor 2 (Homo sapiens, UniProt P41587); experiment: as §1, with “binding” for “binding at 0.5 uM”, “assay” for “assay relative to control”; assay type: cell-based
# T2 sequence (P41587 whole entry): T1 sequence (whole entry)
# [3] = target: T1, Vasoactive intestinal polypeptide receptor 2 (Homo sapiens); experiment: as §1, with “epitope-tagged” for “epitope-tagged Rluc8-fused”, “cells co-expressing CAMYEL” for “cells”, “cAMP accumulation” for “human mVenus-beta-arrestin2 binding”; assay type: functional, cell-based
# [4] = target: T1, Vasoactive intestinal polypeptide receptor 2 (Homo sapiens); experiment: as §1, with “epitope-tagged” for “epitope-tagged Rluc8-fused”, “cells co-expressing CAMYEL” for “cells”, “cAMP accumulation” for “human mVenus-beta-arrestin2 binding”, “5” for “0.5”; assay type: functional, cell-based
# [5] = target: T1, Vasoactive intestinal polypeptide receptor 2 (Homo sapiens); experiment: as §1, with “epitope-tagged” for “epitope-tagged Rluc8-fused”, “cells co-expressing CAMYEL” for “cells”, “cAMP accumulation” for “human mVenus-beta-arrestin2 binding”, “1” for “0.5”; assay type: functional, cell-based
# [6] = target: T1, Vasoactive intestinal polypeptide receptor 2 (Homo sapiens); experiment: as §1, with “5” for “0.5”; assay type: cell-based
# [7] = target: T1, Vasoactive intestinal polypeptide receptor 2 (Homo sapiens); experiment: as §1, with “1” for “0.5”; assay type: cell-based
# [8] = target: T1, Vasoactive intestinal polypeptide receptor 2 (Homo sapiens); experiment: Antagonist activity at recombinant human N-terminal signal peptide/FLAG epitope-tagged VIPR2 expressed in […] cells co-expressing CAMYEL assessed as inhibition of VIP-induced cAMP accumulation preincubated for 5 mins with luciferin, coelenterazine H followed by VIP addition measured after 5 mins by BRET assay; assay type: functional, cell-based
# [9] = target: T2, Vasoactive intestinal polypeptide receptor 2; experiment: Antagonist activity at human VIPR2 expressed in HEK293 cells assessed as inhibition of VIP-induced cAMP accumulation incubated for 30 mins by HTRF assay; assay type: functional, cell-based
# [10] = target: T2, Vasoactive intestinal polypeptide receptor 2; experiment: Antagonist activity at human VIPR2 expressed in HEK293 cells assessed as inhibition of VIP-induced beta-arrestin 2 binding incubated for 2 hrs by beta-galactosidase assay; assay type: cell-based
Compound,inhibition [1] [%],IC50 [2] [µM],inhibition [3] [%],inhibition [4] [%],inhibition [5] [%],inhibition [6] [%],inhibition [7] [%],inhibition [8],IC50 [9] [µM],IC50 [10] [µM]
CCc1ccc(S(=O)(=O)NC[C@@H](O)C[C@@H](Cc2ccccc2)C(=O)N[C@H]2c3ccccc3C[C@H]2O)cc1,–,1.13 to 45.8,–,–,–,–,–,–,–,–
CO[C@H]1Cc2ccccc2[C@@H]1NC(=O)[C@H](Cc1ccccc1)C[C@H](O)CNS(=O)(=O)c1ccc2c(c1)OCCO2,28.1,6,–,–,–,–,–,–,–,–
O=C(N[C@H]1c2ccccc2C[C@H]1O)[C@H](Cc1ccccc1)C[C@H](O)CNS(=O)(=O)c1ccc2c(c1)OCCO2,–,0.206 to 33.7,–,–,–,–,–,–,–,–
CC(=O)c1ccc(S(=O)(=O)NC[C@@H](O)C[C@@H](Cc2ccccc2)C(=O)N[C@H]2c3ccccc3C[C@H]2O)cc1,58.3 to 92.3,–,38.6,96,61.1,88.7,78,Active,–,–

# Next, values leading:
inhibition [1] [%],IC50 [2] [µM],inhibition [3] [%],inhibition [4] [%],inhibition [5] [%],inhibition [6] [%],inhibition [7] [%],inhibition [8],IC50 [9] [µM],IC50 [10] [µM],Compound
13.3,4,–,–,–,–,–,–,–,–,CO[C@@H]1Cc2ccccc2[C@@H]1NC(=O)[C@H](Cc1ccccc1)C[C@H](O)CNS(=O)(=O)c1ccc(Cl)cc1
76.2,5,–,–,–,–,–,–,–,–,CO[C@@H]1Cc2ccccc2[C@@H]1NC(=O)[C@H](Cc1ccccc1)C[C@H](O)CNS(=O)(=O)c1ccc(C(C)=O)cc1
13.4 to 26.8,1800,-1.5,6.2,0.6,20.7,20.4,–,–,–,CCCCNC(=O)[C@@H](Cc1ccccc1)C[C@H](O)CNS(=O)(=O)c1ccc([N+](=O)[O-])cc1
–,0.28 to 2.02,–,–,–,–,–,–,–,–,O=C(N[C@H]1c2ccccc2C[C@H]1O)[C@H](Cc1ccccc1)C[C@H](O)CNS(=O)(=O)c1ccc(Cl)cc1
62.3 to 94.1,1.18 to 1.98,42.2,98.2,63.5,90,80.4,–,–,–,Cc1ccc(S(=O)(=O)NC[C@@H](O)C[C@@H](Cc2ccccc2)C(=O)N[C@H]2c3ccccc3C[C@H]2O)cc1
2.6 to 84.5,–,38.7 to 74.3,97.8 to 100,70.9 to 86.1,29.3 to 92,-2.6 to 74.6,–,3.8,2.3,O=C(N[C@H]1c2ccccc2C[C@H]1O)[C@H](Cc1ccccc1)C[C@H](O)CNS(=O)(=O)c1ccc([N+](=O)[O-])cc1
6.25 to 6.9,–,7,9.3,8.3,3.2,4,–,–,–,CNC(=O)[C@H](Cc1ccccc1)C[C@H](O)CNS(=O)(=O)c1ccc([N+](=O)[O-])cc1
